Results published in ChEMBL document CHEMBL6178023 (J Med Chem, 2025).
In brackets after ≈: the same amount, converted by molar mass. Activity calls are given as the source filed them. The calls are words filed in the database; no cut-off is given here.

Tests used:
Chikungunya virus [1] = assay: Antiviral activity against CHIKV 181/25 expressing nLuc-capsid gene infected in human MRC5 cells assessed as reduction in viral replication preincubated with cells for 1 hr followed by viral infection measured after 6 hrs post-infection by Nano-glo luciferase assay; type: functional, organism-based; conditions: 181/25, MRC5, read-out: pEC50 (converted)
Chikungunya virus [2] = assay: Inhibition of N-terminal 6-His/SUMO-tagged CHIKV 181/25 nsP2 extracted from Escherichia coli Rosetta 2 at 200 uM preincubated for 30 mins followed by ATP addition measured after 1 hr by ADP-Glo assay relative to control; conditions: time 90.0 min
Chikungunya virus [3] = assay: Antiviral activity against CHIKV 181/25 expressing nLuc-capsid gene infected in human MRC5 cells assessed as inhibition of viral replication at 40 uM preincubated with cells for 1 hr followed by viral infection measured after 6 hrs post-infection by Nano-glo luciferase assay relative to control; type: functional; conditions: for inhibition at 40 µM: 181/25, MRC5, time 7 hrs; for inhibition: time 7.0 hrs
MRC5 = assay: Cytotoxicity against human MRC5 cells at 10 to 40 uM by Cell Titer Glo assay; type: toxicity, cell-based; conditions: mrc5, 40 µM, dose 10-40 µM
[4] = Aqueous solubility of compound in PBS at pH 7.4; type: physicochemical
[5] = Aqueous solubility of compound; type: physicochemical; conditions: buffer
[6] = Selectivity ratio of pEC50 for antiviral activity against VEEV expressing nLuc to pEC50 for antiviral activity against CHIKV 181/25 expressing nLuc-capsid gene infected in human MRC5 cells; type: functional
Polyprotein P1234 [7] = molecular target: T1, Polyprotein P1234 (Chikungunya virus (strain S27-African prototype) (CHIKV), UniProt Q8JUX6); assay: Inhibition of N-terminal 6-His/SUMO-tagged CHIKV 181/25 nsP2 extracted from Escherichia coli Rosetta 2 preincubated for 30 mins followed by ATP addition measured after 1 hr by ADP-Glo assay
[8] = molecular target: Polyprotein P1234 (Chikungunya virus (strain S27-African prototype) (CHIKV)) (UniProt Q8JUX6); assay: Binding affinity to N-terminal 6-His/SUMO-tagged CHIKV 181/25 nsP2 extracted from Escherichia coli Rosetta 2 using fluorescein-labeled dsRNA template incubated for 30 mins by fluorescence polarization assay
Target sequence in this assay (Q8JUX6 whole entry): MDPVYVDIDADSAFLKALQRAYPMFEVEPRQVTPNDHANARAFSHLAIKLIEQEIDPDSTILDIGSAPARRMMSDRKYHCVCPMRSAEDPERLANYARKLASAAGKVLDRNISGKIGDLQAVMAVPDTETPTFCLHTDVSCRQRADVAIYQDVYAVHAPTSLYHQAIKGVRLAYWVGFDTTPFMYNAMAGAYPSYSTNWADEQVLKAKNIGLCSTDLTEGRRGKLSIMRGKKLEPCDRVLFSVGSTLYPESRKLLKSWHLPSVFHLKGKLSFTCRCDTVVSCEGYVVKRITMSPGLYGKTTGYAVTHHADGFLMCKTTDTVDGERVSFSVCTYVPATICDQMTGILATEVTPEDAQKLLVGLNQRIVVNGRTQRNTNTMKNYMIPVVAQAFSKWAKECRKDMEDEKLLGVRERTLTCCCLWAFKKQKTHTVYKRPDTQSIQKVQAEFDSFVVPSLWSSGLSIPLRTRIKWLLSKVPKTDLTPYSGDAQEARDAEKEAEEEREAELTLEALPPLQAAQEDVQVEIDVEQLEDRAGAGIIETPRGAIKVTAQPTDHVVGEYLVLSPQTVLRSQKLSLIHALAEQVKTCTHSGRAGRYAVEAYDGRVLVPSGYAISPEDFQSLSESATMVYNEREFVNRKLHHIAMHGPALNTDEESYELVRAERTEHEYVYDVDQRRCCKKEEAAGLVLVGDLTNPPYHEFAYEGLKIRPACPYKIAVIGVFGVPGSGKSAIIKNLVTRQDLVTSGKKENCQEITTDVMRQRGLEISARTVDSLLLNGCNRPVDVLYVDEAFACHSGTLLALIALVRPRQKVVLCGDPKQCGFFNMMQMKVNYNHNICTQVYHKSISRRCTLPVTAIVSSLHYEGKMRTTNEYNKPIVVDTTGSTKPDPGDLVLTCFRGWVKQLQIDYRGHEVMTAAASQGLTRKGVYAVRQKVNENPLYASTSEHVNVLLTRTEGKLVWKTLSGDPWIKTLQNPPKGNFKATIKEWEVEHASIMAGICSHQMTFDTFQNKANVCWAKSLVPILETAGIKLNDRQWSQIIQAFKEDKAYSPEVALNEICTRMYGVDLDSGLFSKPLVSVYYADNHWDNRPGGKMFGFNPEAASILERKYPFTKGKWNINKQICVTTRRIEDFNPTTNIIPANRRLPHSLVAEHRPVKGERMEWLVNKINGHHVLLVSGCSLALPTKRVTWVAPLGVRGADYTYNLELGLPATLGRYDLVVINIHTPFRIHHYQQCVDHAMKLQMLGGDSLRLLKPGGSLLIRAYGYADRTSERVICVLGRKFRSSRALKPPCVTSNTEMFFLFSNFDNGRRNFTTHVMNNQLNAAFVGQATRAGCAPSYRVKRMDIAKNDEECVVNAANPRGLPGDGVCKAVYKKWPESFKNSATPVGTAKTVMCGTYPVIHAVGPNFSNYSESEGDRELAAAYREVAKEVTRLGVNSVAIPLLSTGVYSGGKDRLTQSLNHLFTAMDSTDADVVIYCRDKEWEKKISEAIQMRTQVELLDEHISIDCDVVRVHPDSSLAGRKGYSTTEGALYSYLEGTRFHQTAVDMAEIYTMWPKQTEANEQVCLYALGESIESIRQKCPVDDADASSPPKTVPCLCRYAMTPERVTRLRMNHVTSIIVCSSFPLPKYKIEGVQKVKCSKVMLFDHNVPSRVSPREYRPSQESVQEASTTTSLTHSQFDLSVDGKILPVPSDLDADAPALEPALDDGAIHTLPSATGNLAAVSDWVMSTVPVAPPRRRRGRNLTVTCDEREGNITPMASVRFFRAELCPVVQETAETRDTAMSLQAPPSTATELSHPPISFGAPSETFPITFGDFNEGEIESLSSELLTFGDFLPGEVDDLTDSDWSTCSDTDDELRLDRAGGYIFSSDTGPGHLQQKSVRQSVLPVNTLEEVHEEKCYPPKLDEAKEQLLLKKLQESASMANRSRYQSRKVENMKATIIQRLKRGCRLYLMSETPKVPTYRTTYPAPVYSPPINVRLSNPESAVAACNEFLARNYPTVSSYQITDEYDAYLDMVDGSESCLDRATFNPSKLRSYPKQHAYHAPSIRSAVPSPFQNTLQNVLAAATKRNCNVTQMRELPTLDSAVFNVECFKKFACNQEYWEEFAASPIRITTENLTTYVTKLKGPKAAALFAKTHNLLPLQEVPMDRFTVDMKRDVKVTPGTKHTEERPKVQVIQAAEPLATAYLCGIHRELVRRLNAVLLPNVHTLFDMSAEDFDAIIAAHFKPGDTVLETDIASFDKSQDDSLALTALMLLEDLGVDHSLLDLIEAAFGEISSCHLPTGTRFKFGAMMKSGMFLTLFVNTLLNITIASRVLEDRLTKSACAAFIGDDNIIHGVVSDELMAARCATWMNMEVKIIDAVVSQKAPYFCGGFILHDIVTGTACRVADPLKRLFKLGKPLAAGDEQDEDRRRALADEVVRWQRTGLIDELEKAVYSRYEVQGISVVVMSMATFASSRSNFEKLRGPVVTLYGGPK

[9] = molecular target: Polyprotein P1234 (Chikungunya virus (strain S27-African prototype) (CHIKV)) (UniProt Q8JUX6); assay: Binding affinity to N-terminal 6-His/SUMO-tagged CHIKV 181/25 nsP2 extracted from Escherichia coli Rosetta 2 assessed as unchanged Km up to 2.5 uM in presence of [alpha-32P]-ATP by TLC method
Target sequence in this assay (Q8JUX6 whole entry): as above

Mayaro virus [10] = assay: (§1) Anti-viral activity against MAYV infected in human NHDF cells assessed as log reduction in viral titer at 0.01 to 100 uM incubated with cells for 1 hr followed by viral infection for 2 hrs and subsequent replacement of fresh media with compound measured after 24 hrs post-infection by extracting viral supernatant from cells and transferring supernatant to African geen monkey Vero cells for measuring plaque formation; type: functional; conditions: dose 0.01-100 µM; time 25 hrs
Chikungunya virus [11] = assay: as §1, with “CHIKV” for “MAYV”, “as” for “as log”, “titer” for “titer at 0.01 to 100 uM”; type: functional, organism-based; conditions: dose 0.01-100 µM, time 25.0 hrs
[12] = molecular target: Polyprotein P1234 (Chikungunya virus (strain S27-African prototype) (CHIKV)) (UniProt Q8JUX6); assay: Binding affinity to N-terminal 6-His/SUMO-tagged CHIKV 181/25 nsP2 extracted from Escherichia coli Rosetta 2 assessed as decrease in Vmax up to 2.5 uM in presence of [alpha-32P]-ATP by TLC method
Target sequence in this assay (Q8JUX6 whole entry): as above

Mayaro virus [13] = assay: as §1, with “as” for “as log”, “titer” for “titer at 0.01 to 100 uM”; type: functional, organism-based; conditions: dose 0.01-100 µM, time 25.0 hrs
[14] = molecular target: Polyprotein P1234 (Chikungunya virus (strain S27-African prototype) (CHIKV)) (UniProt Q8JUX6); assay: Inhibition of N-terminal 6-His/SUMO-tagged CHIKV 181/25 nsP2 extracted from Escherichia coli Rosetta 2 assessed as decrease in nsP2 ATPase activity up to 100 uM measured for 5 to 10 mins in presence of [alpha-32P]-ATP by TLC method; conditions: time 5-10 min
Target sequence in this assay (Q8JUX6 whole entry): as above

[15] = molecular target: Polyprotein P1234 (Chikungunya virus (strain S27-African prototype) (CHIKV)) (UniProt Q8JUX6); assay: (§2) Inhibition of N-terminal 6-His/SUMO-tagged CHIKV 181/25 nsP2 extracted from Escherichia coli Rosetta 2 assessed as decrease in nsP2 helicase activity in presence of RNA duplex composed of 39mer loading RNA strand/19mer displaced RNA strand by gel electrophoresis; conditions: dose 0.01-100 µM
Target sequence in this assay (Q8JUX6 536-1333 limits assumed): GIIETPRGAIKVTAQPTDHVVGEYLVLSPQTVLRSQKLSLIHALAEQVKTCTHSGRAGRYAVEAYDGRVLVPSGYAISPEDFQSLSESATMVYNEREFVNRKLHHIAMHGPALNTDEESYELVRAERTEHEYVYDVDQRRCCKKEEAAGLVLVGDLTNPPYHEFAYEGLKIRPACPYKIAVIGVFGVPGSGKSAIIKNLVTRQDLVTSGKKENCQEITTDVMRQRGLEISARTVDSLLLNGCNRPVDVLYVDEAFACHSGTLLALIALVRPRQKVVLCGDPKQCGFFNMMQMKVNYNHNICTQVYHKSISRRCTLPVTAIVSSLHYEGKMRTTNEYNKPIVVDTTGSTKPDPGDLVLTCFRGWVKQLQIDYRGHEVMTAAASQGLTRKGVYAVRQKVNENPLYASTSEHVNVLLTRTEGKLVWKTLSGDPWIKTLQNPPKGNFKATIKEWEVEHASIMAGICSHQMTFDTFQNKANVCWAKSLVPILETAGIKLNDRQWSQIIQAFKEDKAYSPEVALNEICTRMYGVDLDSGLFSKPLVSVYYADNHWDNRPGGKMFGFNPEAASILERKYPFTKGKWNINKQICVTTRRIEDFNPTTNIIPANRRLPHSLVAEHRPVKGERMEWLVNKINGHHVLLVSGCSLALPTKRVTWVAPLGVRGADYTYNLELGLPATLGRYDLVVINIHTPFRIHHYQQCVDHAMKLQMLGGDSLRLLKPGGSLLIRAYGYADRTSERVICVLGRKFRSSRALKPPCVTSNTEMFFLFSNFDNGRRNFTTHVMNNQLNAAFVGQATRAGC

Polyprotein P1234 [16] = molecular target: T1, Polyprotein P1234; assay: as §2

T1 sequence (Q8JUX6 536-1333 limits assumed): as above

| SMILES | EC50 (Chikungunya virus [1]) [µM] | inhibition (Chikungunya virus [2]) | inhibition at 40 µM (Chikungunya virus [3]) [%] | Activity (MRC5) | solubility kinetic [4] [µM] | inhibition (Chikungunya virus [3]) | IC50 (Polyprotein P1234 [7]) [µM] | also measured |
| --- | --- | --- | --- | --- | --- | --- | --- | --- |
| CN(C)S(=O)(=O)NCC1CCOC2(CCN(C(=O)C3(c4cccnc4)CCCC3)CC2)C1 (stereo not drawn) | > 39.8 | inactive | 50 | Non-toxic |  |  |  |  |
| NCC1(O)CCOC2(CCN(C(=O)C3(c4ccccc4)CCCC3)CC2)C1 (stereo not drawn) | > 39.8 | inactive | 50 | Non-toxic | 170 (≈ 63.3 µg/mL) |  |  |  |
| CN(C)S(=O)(=O)NCC1CCOC2(CCN(C(=O)C(=O)c3ccccc3)CC2)C1 (stereo not drawn) |  | inactive |  | Non-toxic | 170 (≈ 72 µg/mL) | inactive |  |  |
| COc1ccc(C2(C(=O)N3CCC4(CC3)CC(CNS(C)(=O)=O)CCO4)CCCC2)cc1 (stereo not drawn) |  | inactive |  | Non-toxic |  | inactive |  |  |
| CN(C)S(=O)(=O)NCC1CCOC2(CCN(C(=O)C3(c4ccccc4)CCCO3)CC2)C1 (stereo not drawn) |  | inactive |  | Non-toxic | 200 (≈ 93.1 µg/mL) | inactive |  |  |
| CS(=O)(=O)NCC1CCOC2(CCN(C(=O)C3(c4ccccc4)CCCC3)CC2)C1 (stereo not drawn) | 3.16 | 40% |  | Non-toxic |  |  | > 39.8 | solubility [5]: 240 µM (≈ 104 µg/mL); Ratio [6]: 10 |
| CC(C)(C(=O)N1CCC2(CC1)CC(CNS(C)(=O)=O)CCO2)c1ccccc1 (stereo not drawn) | > 39.8 | 40% | 50 | Non-toxic | 220 (≈ 89.9 µg/mL) |  | > 39.8 |  |
| CC1(C(=O)N2CCC3(CC2)CC(CNS(C)(=O)=O)CCO3)CCCC1 (stereo not drawn) | > 39.8 | inactive | 40 | Non-toxic |  |  |  |  |
| CS(=O)(=O)NCC1CCOC2(CCN(C(=O)Cc3ccccc3)CC2)C1 (stereo not drawn) |  | inactive |  | Non-toxic | 200 (≈ 76.1 µg/mL) | inactive |  |  |
| CNCC1CCOC2(CCN(C(=O)C3(c4ccccc4)CCCC3)CC2)C1 (stereo not drawn) | > 39.8 | inactive | 60 | Non-toxic | 170 (≈ 63 µg/mL) |  |  |  |
| Cc1ccnc(OC2CCOC3(CCN(C(=O)C4(c5ccccc5)CCCC4)CC3)C2)c1 (stereo not drawn) | 12.6 | 40% |  | Non-toxic |  |  | > 39.8 | solubility [5]: 14 µM (≈ 6.08 µg/mL); Ratio [6]: 10 |
| NCC1CCOC2(CCN(C(=O)C3(c4ccccc4)CCCC3)CC2)C1 (stereo not drawn) | > 39.8 | inactive | 60 | Non-toxic | 160 (≈ 57 µg/mL) |  |  |  |
| CN(C)S(=O)(=O)NCC1CCOC2(CCN(C(=O)C3(c4ccccn4)CCCC3)CC2)C1 (stereo not drawn) | > 39.8 | 40% | 70 | Non-toxic |  |  | > 39.8 |  |
| CS(=O)(=O)NCC1CCOC2(CCN(C(=O)C3(c4ccccc4)CCOCC3)CC2)C1 (stereo not drawn) |  | inactive |  | Non-toxic | 190 (≈ 85.6 µg/mL) | inactive |  |  |
| CCCCCCOc1ccc(C(=O)NCC2CCOC3(CCN(C(=O)C4(c5ccccc5)CCCC4)CC3)C2)cc1 (stereo not drawn) | > 39.8 | inactive | 70 | Non-toxic | < 1 |  |  |  |
| O=C(N1CCC2(CC1)CC(CN1CCCCS1(=O)=O)CCO2)C1(c2ccc(F)cc2)CCCC1 (stereo not drawn) | > 39.8 | 80% | 90 | Non-toxic | 190 (≈ 93.6 µg/mL) |  | > 39.8 |  |
| CS(=O)(=O)NCC1CCOC2(CCN(C(=O)C3(c4ccccc4)CCC3)CC2)C1 (stereo not drawn) |  | inactive |  | Non-toxic | 160 (≈ 67.3 µg/mL) | inactive |  |  |
| O=C(N1CCC2(CC1)CC(CN1CCCCS1(=O)=O)CCO2)C1(c2ccccc2)CCCC1 (stereo not drawn) | 0.126 |  |  | Non-toxic | > 220 |  | 0.501 | Activity [8]: Active; Compound Did Not Involve Direct Displacement Of Rna Substrate Suggesting Allosteric Mechanism Of Helicase Inhibition; Activity [9]: Active; Activity (Mayaro virus [10]): 0.01 10^5No_unit; Activity (Chikungunya virus [11]): Dose-dependent-effect; Activity [12]: Active; Activity (Mayaro virus [13]): Dose-dependent-effect; inhibition [14]: Active; Ic50 Of Compound Was Same At Both # And # Mins; inhibition [15]: Dose-dependent-effect; IC50 (Polyprotein P1234 [16]): 0.9 µM |
| CN(C)S(=O)(=O)NCC1CCOC2(CCN(C(=O)C3(c4ccncc4)CCCC3)CC2)C1 (stereo not drawn) |  | inactive |  | Non-toxic |  | inactive |  |  |
| Cc1ccc(C2(C(=O)N3CCC4(CC3)CC(CNS(C)(=O)=O)CCO4)CCCC2)cc1 (stereo not drawn) |  | inactive |  | Non-toxic |  | inactive |  |  |
| CS(=O)(=O)NCC1CCOC2(CCN(C(=O)C3(c4ccc(Cl)cc4)CCCC3)CC2)C1 (stereo not drawn) | > 39.8 | inactive | 70 | Non-toxic |  |  |  |  |
| CS(=O)(=O)NCC1CCOC2(CCN(C(=O)C3(c4ccccc4)CCCCC3)CC2)C1 (stereo not drawn) | 15.8 | 80% |  | Non-toxic | 230 (≈ 103 µg/mL) |  | > 39.8 |  |
